Columns and labels:
[1] = Tissue distribution in rodents; type: in vivo
Description: Infiltration of various immune cell populations, resulting in inflammation, is a central pathogenic feature following acute- and chronic liver injury. Chronic liver inflammation leads to continuous hepatocyte injury which can lead to fibrosis, cirrhosis, ESLD, and HCC. Interactions between intra-hepatic immune cells lead to increased activation and migration of Kupffer cells and HSCs and are critical events for developing liver fibrosis. Additionally, there is increasing evidence of the role of CCR2 and CCR5 in the pathogenesis of liver fibrosis. These members of the C-C chemokine family are expressed by pro-fibrogenic cells including pro-inflammatory monocytes and macrophages, Kupffer cells, and HSCs. CCR2 signaling plays an important role in the pathogenesis of renal fibrosis through regulation of bone marrow-derived fibroblasts. CCR2- and CCR5-positive monocytes as well as CCR5-positive T lymphocytes are attracted by locally released MCP-1 and RANTES, and can contribute to chronic interstitial inflammation in the kidney. […] Disruption of the intestinal microbiota and its downstream effects on the gut-liver axis both play an important role in metabolic disorders such as obesity, non-alcoholic fatty liver disease (NAFLD) and non-alcoholic steatohepatitis (NASH).

[2] = tested on: thioacetamide (TAA)-induced hepatic fibrosis; experiment: Rat model of thioacetamide-induced liver fibrosis and cirrhosis; type: in vivo, Sprague-Dawley rats; details: for Reduction of ca-SMA / Reduction of collagen type 1 protein levels / Reduction of fibrosis by collagen morphometry: first 8 weeks
Description: Fibrosis was induced in male Sprague-Dawley rats by intraperitoneal administration of TAA 150 mg/kg 3 times/week for 8 weeks. […] Biochemical, gene expression and histologic evaluations of the liver were conducted.

Mouse toxicity studies = type: in vivo; details: CVC doses up to 2000 mg/kg/day; no surgical procedures
[3] = tested on: adults with CCR5 tropic HIV-1; experiment: Study 202 post-hoc APRI and FIB-4 fibrosis index scores; type: in vivo, human
Description: APRI and FIB-4 scores were calculated. Change in score category from baseline (BL) to Weeks 24 and 48 was assessed in patients with non-missing data. Correlations between changes from BL in APRI and FIB-4 scores, and MCP-1 (CCR2 ligand) and sCD14 (inflammatory biomarker) levels were evaluated.

[4] = tested on: HIV-1 infected adult subjects; experiment: Study 202 biomarkers of inflammation; type: in vivo, human
Description: As an exploratory analysis, levels of inflammation biomarkers MCP-1, sCD14, high sensitivity C-reactive protein [hs-CRP], interleukin-6 [IL-6], D-dimer, and fibrinogen) were measured. Baseline values and changes from baseline at Week 24 and Week 48 of MCP-1, sCD14, hs-CRP, IL-6, D-dimer, and fibrinogen are summarized in Table 22.
The sCD14 samples were originally analyzed in 2 separate batches: Batch 1 included samples leading up to the Week 24 primary analysis and Batch 2 included Week 32 and Week 48 (end of study) samples. A repeat analysis of archived samples all analyzed in one batch was conducted for consistency in analysis across time points. To control for the effects of covariates, a linear mixed-model repeated-measures analysis was conducted on the changes from baseline in sCD14 (analysis dated September 2013).

[5] = Chronic (3- and 9-month) monkey toxicity studies; type: in vivo
CCR2 = CCR2 (Homo sapiens, UniProt P41597); experiment: CCR2 antagonism in in vitro, ex vivo and clinical studies; details: Studies 652-2-201 and 652-2-202
Chain of CCR2 (P41597 whole entry): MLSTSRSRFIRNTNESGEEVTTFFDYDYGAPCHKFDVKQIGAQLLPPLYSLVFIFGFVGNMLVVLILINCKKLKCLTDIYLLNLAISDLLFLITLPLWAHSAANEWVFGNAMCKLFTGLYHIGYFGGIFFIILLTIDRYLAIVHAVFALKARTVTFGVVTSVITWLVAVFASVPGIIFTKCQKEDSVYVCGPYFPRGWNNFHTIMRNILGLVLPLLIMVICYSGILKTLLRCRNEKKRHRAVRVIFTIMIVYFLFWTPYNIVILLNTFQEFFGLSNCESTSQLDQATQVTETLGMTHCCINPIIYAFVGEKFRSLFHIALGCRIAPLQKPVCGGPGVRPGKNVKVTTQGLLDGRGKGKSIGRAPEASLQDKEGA
Description: Clinical evidence of CCR2 and CCR5 antagonism was established by measuring changes from baseline in plasma MCP-1 (a ligand of CCR2) concentrations and changes in plasma HIV-RNA (CCR5 co-receptor required for HIV entry), respectively, in these 2 Phase 2 Studies.

[6] = CVC plasma exposures in clinical studies; type: in vivo, human; details: same dosing conditions; Studies 652-1-111, 652-1-110, 652-2-202
[7] = Group 1a: CVC 30 mg/kg/day concurrently with TAA
[8] = Group 1b: CVC 100 mg/kg/day concurrently with TAA
[9] = Week 24, CVC pooled 100 and 200 mg, or EFV
[10] = Week 48, CVC pooled 100 and 200 mg, or EFV

CCCCOCCOc1ccc(-c2ccc3c(c2)C=C(C(=O)Nc2ccc([S@@+]([O-])Cc4cncn4CCC)cc2)CCCN3CC(C)C)cc1 [CVC, (S)-8-[4-(2-Butoxyethoxy)phenyl]-1-isobutyl-N-(4-{[(1-propyl-1H-imidazol-5-yl)methyl]sulfinyl}phenyl)-1,2,3,4-tetrahydro-1-benzazocine-5-carboxamide]
Tissue distribution [1]: high distribution in the liver, mesenteric lymph node, and intestine
Reduction of ca-SMA [2, 7]: 17%
Reduction of collagen type 1 protein levels [2, 7]: 30%
Reduction of fibrosis by collagen morphometry [2, 7]: 49%
Reduction of ca-SMA [2, 8]: 22%
Reduction of collagen type 1 protein levels [2, 8]: 12%
Reduction of fibrosis by collagen morphometry [2, 8]: 38%
Reduction in collagen ([2]; Group 2a: CVC 30 mg/kg/day during Weeks 4-8 (emerging fibrosis)): 36%
Effect on fibrogenic gene expression or fibrosis ([2]; Group 3: treatment Weeks 8-12, cirrhosis present): no significant effect of CVC on fibrogenic gene expression or fibrosis
Tolerability (Mouse toxicity studies): well tolerated
Subjects in APRI category 0.5-1.5 [3, 9]: 7%
Subjects in APRI category <0.5 [3, 9]: 93%
Subjects in FIB-4 category 1.45-3.25 [3, 9]: 7%
Subjects in FIB-4 category <1.45 [3, 9]: 93%
Subjects with APRI decreased 1 category from baseline [3, 9]: 14%
Subjects with FIB-4 decreased 1 category from baseline [3, 9]: 13%
Subjects in APRI category 0.5-1.5 [3, 10]: 8%
Subjects in APRI category <0.5 [3, 10]: 91%
Subjects in APRI category >1.5 [3, 10]: 1%
Subjects in FIB-4 category 1.45-3.25 [3, 10]: 5%
Subjects in FIB-4 category <1.45 [3, 10]: 94%
Subjects in FIB-4 category >3.25 [3, 10]: 1%
Subjects with APRI decreased 1 category from baseline [3, 10]: 10%
Subjects with FIB-4 decreased 1 category from baseline [3, 10]: 14%
Subjects with improvements in APRI and FIB-4 scores over time ([3]; all CVC-treated subjects, pooled CVC 100 mg and 200 mg): ≥ 10%
sCD14 (original values) change from baseline, mean ([4]; CVC 100 mg, Week 12): -140000 pg/mL
sCD14 (original values) change from baseline, median ([4]; CVC 100 mg, Week 12): -160000 pg/mL
D-dimer change from baseline, mean ([4]; CVC 100 mg, Week 24): -32 ng/mL
D-dimer change from baseline, median ([4]; CVC 100 mg, Week 24): -1.0 ng/mL
Fibrinogen change from baseline, mean ([4]; CVC 100 mg, Week 24): -3 mg/dL
Fibrinogen change from baseline, median ([4]; CVC 100 mg, Week 24): -14 mg/dL
IL-6 change from baseline, mean ([4]; CVC 100 mg, Week 24): 0.42 pg/mL
IL-6 change from baseline, median ([4]; CVC 100 mg, Week 24): 0.00 pg/mL
MCP-1 change from baseline, mean ([4]; CVC 100 mg, Week 24): 493 pg/mL
MCP-1 change from baseline, median ([4]; CVC 100 mg, Week 24): 429 pg/mL
hs-CRP change from baseline, mean ([4]; CVC 100 mg, Week 24): -0.16 mg/dL
hs-CRP change from baseline, median ([4]; CVC 100 mg, Week 24): -0.03 mg/dL
sCD14 (original values) change from baseline, mean ([4]; CVC 100 mg, Week 24): -190000 pg/mL
sCD14 (original values) change from baseline, median ([4]; CVC 100 mg, Week 24): -180000 pg/mL
sCD14 (original values) change from baseline, mean ([4]; CVC 100 mg, Week 32): 110000 pg/mL
sCD14 (original values) change from baseline, median ([4]; CVC 100 mg, Week 32): 120000 pg/mL
D-dimer change from baseline, mean ([4]; CVC 100 mg, Week 48): -41 ng/mL
D-dimer change from baseline, median ([4]; CVC 100 mg, Week 48): -1.0 ng/mL
Fibrinogen change from baseline, mean ([4]; CVC 100 mg, Week 48): 11 mg/dL
Fibrinogen change from baseline, median ([4]; CVC 100 mg, Week 48): 15 mg/dL
IL-6 change from baseline, mean ([4]; CVC 100 mg, Week 48): 0.29 pg/mL
IL-6 change from baseline, median ([4]; CVC 100 mg, Week 48): 0.00 pg/mL
MCP-1 change from baseline, mean ([4]; CVC 100 mg, Week 48): 636 pg/mL
MCP-1 change from baseline, median ([4]; CVC 100 mg, Week 48): 523 pg/mL
hs-CRP change from baseline, mean ([4]; CVC 100 mg, Week 48): -0.08 mg/dL
hs-CRP change from baseline, median ([4]; CVC 100 mg, Week 48): -0.01 mg/dL
sCD14 (original values) change from baseline, mean ([4]; CVC 100 mg, Week 48): 100000 pg/mL
sCD14 (original values) change from baseline, median ([4]; CVC 100 mg, Week 48): 100000 pg/mL
sCD14 (original values) change from baseline, mean ([4]; CVC 200 mg, Week 12): -230000 pg/mL
sCD14 (original values) change from baseline, median ([4]; CVC 200 mg, Week 12): -210000 pg/mL
D-dimer change from baseline, mean ([4]; CVC 200 mg, Week 24): -64 ng/mL
D-dimer change from baseline, median ([4]; CVC 200 mg, Week 24): -50 ng/mL
Fibrinogen change from baseline, mean ([4]; CVC 200 mg, Week 24): -7 mg/dL
Fibrinogen change from baseline, median ([4]; CVC 200 mg, Week 24): -8 mg/dL
IL-6 change from baseline, mean ([4]; CVC 200 mg, Week 24): 0.81 pg/mL
IL-6 change from baseline, median ([4]; CVC 200 mg, Week 24): 0.00 pg/mL
MCP-1 change from baseline, mean ([4]; CVC 200 mg, Week 24): 753 pg/mL
MCP-1 change from baseline, median ([4]; CVC 200 mg, Week 24): 695 pg/mL
hs-CRP change from baseline, mean ([4]; CVC 200 mg, Week 24): -0.04 mg/dL
hs-CRP change from baseline, median ([4]; CVC 200 mg, Week 24): -0.04 mg/dL
sCD14 (original values) change from baseline, mean ([4]; CVC 200 mg, Week 24): -230000 pg/mL
sCD14 (original values) change from baseline, median ([4]; CVC 200 mg, Week 24): -190000 pg/mL
sCD14 (original values) change from baseline, mean ([4]; CVC 200 mg, Week 32): 20000 pg/mL
sCD14 (original values) change from baseline, median ([4]; CVC 200 mg, Week 32): -20000 pg/mL
D-dimer change from baseline, mean ([4]; CVC 200 mg, Week 48): -70 ng/mL
D-dimer change from baseline, median ([4]; CVC 200 mg, Week 48): -50 ng/mL
Fibrinogen change from baseline, mean ([4]; CVC 200 mg, Week 48): -10 mg/dL
Fibrinogen change from baseline, median ([4]; CVC 200 mg, Week 48): -13 mg/dL
IL-6 change from baseline, mean ([4]; CVC 200 mg, Week 48): -0.04 pg/mL
IL-6 change from baseline, median ([4]; CVC 200 mg, Week 48): 0.00 pg/mL
MCP-1 change from baseline, mean ([4]; CVC 200 mg, Week 48): 900 pg/mL
MCP-1 change from baseline, median ([4]; CVC 200 mg, Week 48): 756 pg/mL
hs-CRP change from baseline, mean ([4]; CVC 200 mg, Week 48): -0.18 mg/dL
hs-CRP change from baseline, median ([4]; CVC 200 mg, Week 48): -0.04 mg/dL
sCD14 (original values) change from baseline, mean ([4]; CVC 200 mg, Week 48): -40000 pg/mL
sCD14 (original values) change from baseline, median ([4]; CVC 200 mg, Week 48): -40000 pg/mL
Plasma MCP-1 levels over controls ([5]; 1000 mg/kg/day, chronic (3- and 9-month) monkey toxicity studies): ~5 fold
Inflammation in clinical pathology parameters or any tissue, including the liver, by microscopic evaluation ([5]; high dose of 1000 mg/kg/day): No indication of inflammation
Antagonism of CCR2 (CCR2): potent and concentration-dependent antagonism
CVC plasma exposures [6]: higher in non-HIV infected healthy volunteer subjects as compared to HIV-infected subjects

— patent US20200268768A1, “CENICRIVIROC COMBINATION THERAPY FOR THE TREATMENT OF FIBROSIS” (Tobira Therapeutics, Inc., priority 2015, published 2020)
